{"source": "patent US20230265103A1", "about": "(TME Therapeutics LLC, priority 2021, published 2023)", "key": {"[1]": {"tested_on": "SARS-CoV-2 (strain USA-WA1/2020)", "assay": "SARS-CoV-2 antiviral assay (inhibition of CPE, neutral red)", "type": "cell-based", "conditions": "SARS-COV2; for EC50: Severe acute respiratory syndrome coronavirus 2, inhibition of CPE by 50%"}, "in vitro [2]": {"assay": "in vitro", "conditions": "dog"}, "[3]": {"tested_on": "influenza A strain California/07/09 (H1N1)pdm09", "assay": "Influenza A antiviral assay (inhibition of CPE, neutral red)", "type": "cell-based", "conditions": "for EC50: Influenza A virus, H1N1"}, "in vitro [4]": {"assay": "in vitro", "conditions": "African green monkey"}, "[5]": {"tested_on": "HuT-78 (T cell lymphoma) cells", "assay": "Anti-proliferative activity, HuT-78 (CellTiter-Glo)", "conditions": "Homo sapiens, HuT78, 144 h"}, "[6]": {"tested_on": "JJN3 (multiple myeloma) cells", "assay": "Anti-proliferative activity, JJN3 (CellTiter-Glo)", "conditions": "Homo sapiens, JJN-3, 144 h"}, "[7]": {"tested_on": "Ebola virus (Mayinga strain) glycoprotein (rVSV-EBOV-GP)", "assay": "microbe, parasite or virus in culture", "type": "cell-based"}, "[8]": {"tested_on": "SARS-CoV-2 (Delta strain B.1.617)", "assay": "SARS-CoV-2 Delta antiviral assay (inhibition of CPE, neutral red)", "type": "cell-based", "conditions": "SARS-COV2 (Delta)"}, "[9]": {"tested_on": "Marburg virus (Angola strain) glycoprotein (rVSV-MARV-GP)", "assay": "organism not typed", "type": "cell-based"}, "PIKFYVE": {"target": "T1, PIKFYVE (Homo sapiens, UniProt Q9Y2I7)", "T1 construct": "purchased Eurofins (KINOMEscan); host or cells: E. coli BL21-derived (T7 phage display) or HEK-293", "T1 sequence (Q9Y2I7 whole entry)": "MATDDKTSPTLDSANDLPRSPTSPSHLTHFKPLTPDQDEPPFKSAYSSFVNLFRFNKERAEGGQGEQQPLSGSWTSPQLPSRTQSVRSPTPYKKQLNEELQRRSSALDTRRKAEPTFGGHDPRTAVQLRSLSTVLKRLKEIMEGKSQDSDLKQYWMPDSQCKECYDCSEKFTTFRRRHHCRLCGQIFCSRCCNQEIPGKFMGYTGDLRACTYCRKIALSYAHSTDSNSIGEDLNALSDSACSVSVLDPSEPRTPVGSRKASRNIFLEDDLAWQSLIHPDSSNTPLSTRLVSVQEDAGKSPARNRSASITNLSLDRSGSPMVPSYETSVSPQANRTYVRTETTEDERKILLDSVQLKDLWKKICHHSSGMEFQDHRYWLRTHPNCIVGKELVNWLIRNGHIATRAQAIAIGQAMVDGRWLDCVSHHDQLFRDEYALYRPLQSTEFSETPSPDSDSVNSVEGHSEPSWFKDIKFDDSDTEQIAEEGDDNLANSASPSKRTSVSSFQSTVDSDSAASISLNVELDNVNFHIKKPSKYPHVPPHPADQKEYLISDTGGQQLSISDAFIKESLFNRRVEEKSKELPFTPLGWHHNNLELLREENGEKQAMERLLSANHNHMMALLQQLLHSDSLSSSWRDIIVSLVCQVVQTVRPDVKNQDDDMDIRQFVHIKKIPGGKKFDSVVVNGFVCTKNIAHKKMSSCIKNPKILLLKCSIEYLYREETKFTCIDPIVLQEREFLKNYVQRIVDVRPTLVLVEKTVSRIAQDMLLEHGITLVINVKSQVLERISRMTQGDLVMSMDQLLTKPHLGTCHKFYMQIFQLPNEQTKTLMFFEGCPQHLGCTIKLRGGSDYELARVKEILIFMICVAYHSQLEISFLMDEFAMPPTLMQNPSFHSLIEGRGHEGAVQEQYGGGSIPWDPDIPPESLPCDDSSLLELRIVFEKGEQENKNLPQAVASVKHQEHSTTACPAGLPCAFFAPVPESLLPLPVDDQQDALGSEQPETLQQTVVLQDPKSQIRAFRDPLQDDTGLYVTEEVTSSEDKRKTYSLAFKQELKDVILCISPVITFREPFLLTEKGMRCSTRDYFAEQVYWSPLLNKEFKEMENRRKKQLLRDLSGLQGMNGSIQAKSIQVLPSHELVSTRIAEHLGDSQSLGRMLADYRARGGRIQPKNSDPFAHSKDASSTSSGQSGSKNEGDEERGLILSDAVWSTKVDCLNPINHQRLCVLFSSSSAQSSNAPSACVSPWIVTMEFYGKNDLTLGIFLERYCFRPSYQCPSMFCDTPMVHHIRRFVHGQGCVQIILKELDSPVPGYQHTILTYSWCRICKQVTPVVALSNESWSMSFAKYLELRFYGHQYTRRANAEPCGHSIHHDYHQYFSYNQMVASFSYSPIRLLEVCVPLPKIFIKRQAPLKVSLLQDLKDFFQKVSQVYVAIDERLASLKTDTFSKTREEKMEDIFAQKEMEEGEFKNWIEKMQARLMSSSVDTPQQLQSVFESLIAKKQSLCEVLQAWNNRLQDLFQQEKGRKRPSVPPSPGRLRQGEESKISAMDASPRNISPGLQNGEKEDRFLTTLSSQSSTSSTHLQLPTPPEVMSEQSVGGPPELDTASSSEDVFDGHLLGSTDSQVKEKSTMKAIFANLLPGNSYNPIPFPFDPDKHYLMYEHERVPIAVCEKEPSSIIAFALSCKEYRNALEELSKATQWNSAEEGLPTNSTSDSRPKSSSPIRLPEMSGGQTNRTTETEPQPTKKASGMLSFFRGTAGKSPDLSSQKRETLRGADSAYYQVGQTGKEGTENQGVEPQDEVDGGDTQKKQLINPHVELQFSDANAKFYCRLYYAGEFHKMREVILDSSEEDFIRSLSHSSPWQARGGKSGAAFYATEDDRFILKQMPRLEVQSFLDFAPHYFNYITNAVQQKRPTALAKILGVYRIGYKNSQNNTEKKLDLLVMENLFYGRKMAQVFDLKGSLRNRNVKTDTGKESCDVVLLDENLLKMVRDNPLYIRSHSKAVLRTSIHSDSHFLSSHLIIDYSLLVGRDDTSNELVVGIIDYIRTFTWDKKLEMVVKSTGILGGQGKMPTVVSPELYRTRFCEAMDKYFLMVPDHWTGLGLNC", "assay": "KINOMEscan Kinase Assay (Eurofins), PIKFYVE inhibitory activity", "type": "binding", "conditions": "for IC50: KINOMEscan"}}, "data": [{"smiles": "CCC(CC)COC(=O)[C@H](C)N[P@](=O)(OC[C@H]1O[C@@](C#N)(c2ccc3c(N)ncnn23)[C@H](O)[C@@H]1O)Oc1ccccc1", "note": "[remdesivir, reference compound]", "values": [{"measurement": "EC50", "setting": "[1]", "result": 5.6, "unit": "µM"}, {"measurement": "CC50", "setting": "in vitro [2]", "result": "> 100", "unit": "µM"}]}, {"smiles": "NC(=O)c1ncn([C@@H]2O[C@H](CO)[C@@H](O)[C@H]2O)n1", "note": "[ribavirin, reference compound]", "values": [{"measurement": "EC50", "setting": "[3]", "result": 3.8, "unit": "µM"}, {"measurement": "CC50", "setting": "in vitro [2]", "result": "> 1000", "unit": "µM"}]}, {"smiles": "Cc1cccc(-c2ccn(-c3nc(N4CCOCC4)c4sc(CN5CCN(S(C)(=O)=O)CC5)cc4n3)n2)c1", "note": "[Ex. 2, 4-(6-((4-(methylsulfonyl)piperazin-1-yl)methyl)-2-(3-(m-tolyl)-1H-pyrazol-1-yl)thieno[3,2-d]pyrimidin-4-yl)morpholine]", "values": [{"measurement": "EC50", "setting": "[3]", "result": "< 1", "unit": "µM"}, {"measurement": "Selectivity Index", "setting": "[3]; Influenza A, CC50 divided by EC50", "result": ">150"}, {"measurement": "Selectivity Index", "setting": "[1]; CC50 divided by EC50", "result": ">150"}, {"measurement": "EC50", "setting": "[1]", "result": "< 1", "unit": "µM"}, {"measurement": "CC50", "setting": "in vitro [4]", "result": "> 3", "unit": "mM"}, {"measurement": "EC50", "setting": "[5]", "result": "< 250", "unit": "nM"}, {"measurement": "EC50", "setting": "[6]", "result": "< 50", "unit": "nM"}, {"measurement": "Selectivity Index", "setting": "[7]", "result": ">6000"}, {"measurement": "EC50", "setting": "[7]; Zaire ebolavirus, Vero", "result": "< 500", "unit": "nM"}, {"measurement": "Selectivity Index", "setting": "[8]; CC50 divided by EC50", "result": ">1000"}, {"measurement": "EC50", "setting": "[8]; Severe acute respiratory syndrome coronavirus 2", "result": "< 3000", "unit": "nM"}, {"measurement": "Selectivity Index", "setting": "[9]", "result": ">15000"}, {"measurement": "EC50", "setting": "[9]; Vero", "result": "< 200", "unit": "nM"}, {"measurement": "IC50", "setting": "PIKFYVE", "result": "< 1", "unit": "nM"}]}, {"smiles": "Cc1cccc(-c2ccn(-c3nc(N4CCOCC4)c4nc(CN5CCOCC5)n(C)c4n3)n2)c1", "note": "[Ex. 56, 4-((9-methyl-6-morpholino-2-(3-(m-tolyl)-1H-pyrazol-1-yl)-9H-purin-8-yl)methyl)morpholine]", "values": [{"measurement": "inhibition at 0.003 µM", "setting": "PIKFYVE; @ 3 nM", "result": 94, "unit": "%"}]}, {"smiles": "Cc1cccc(-c2ccn(-c3nc(N4CCOCC4)c4nc(CN5CCN(S(C)(=O)=O)CC5)sc4n3)n2)c1", "note": "[Ex. 9, 4-(2-((4-(methylsulfonyl)piperazin-1-yl)methyl)-5-(3-(m-tolyl)-1H-pyrazol-1-yl)thiazolo[5,4-d]pyrimidin-7-yl)morpholine]", "values": [{"measurement": "IC50", "setting": "PIKFYVE", "result": "1 to 10", "unit": "nM"}]}, {"smiles": "Cc1cccc(-c2ccn(-c3cc(N4CCOCC4)c4nc(CN5CCC(N(C)C)C(F)C5)[nH]c4n3)n2)c1", "note": "(stereo not drawn) [Ex. 52, 3-fluoro-N,N-dimethyl-1-((7-morpholino-5-(3-(m-tolyl)-1H-pyrazol-1-yl)-3H-imidazo[4,5-b]pyridin-2-yl)methyl)piperidin-4-amine]", "values": [{"measurement": "IC50", "setting": "PIKFYVE", "result": "< 1", "unit": "nM"}]}]}
